The nature of series [1]: Cytotoxicity against mouse RAW cells assessed as cell viability. Type of series: toxicity, cell-based. On the set-up: concentration or dose not given beside the values. The following applies: read-out: Activity.
In series [2] the test system is PC-12. As to the kind of experiment: Cytotoxicity against rat PC12 cells assessed as cell viability at 40 uM incubated for 24 hrs by CCK-8 assay relative to control. The following applies: read-out: Activity. It counts as functional.
The subject of series [3] is PC-12. As to the kind of experiment: Cytotoxicity against rat PC12 cells assessed as cell viability at 10 uM incubated for 24 hrs by CCK-8 assay relative to control. It counts as functional. The following applies: read-out: Activity.
Series [4] concerns Rattus norvegicus. Briefly: Neuroprotective activity against cerebral ischemia-reperfusion injury in MCAO rat model assessed as reduction in infarct area at 10 mg/kg, iv treated after 2 hrs ischemia followed by reperfusion measured after 1 week of post-reperfusion by TTC staining based analysis. It counts as functional, organism-based. The following applies: time 1.0 weeks.
Series [5] has as its system PC-12. As to the kind of experiment: Neuroprotective activity against t-BHP induced oxidative damage in rat PC12 cells model assessed as reduction in intracellular ROS level at 10 uM incubated for 24 hrs by DCFH-DA probe based flow cytometry analysis. Type of series: functional, cell-based.
The test system of series [6] is PC-12. As to the kind of experiment: Neuroprotective activity against t-BHP induced oxidative damage in rat PC12 cells model assessed as reduction in intracellular ROS level at 10 uM incubated for 24 hrs by DCFH-DA probe based analysis. Type of series: functional, cell-based.
The subject of series [7] is Rattus norvegicus. Briefly: Neuroprotective activity against cerebral ischemia-reperfusion injury in MCAO rat model assessed as reduction in ROS accumulation in cortex at 10 mg/kg, iv treated after 2 hrs ischemia followed by reperfusion measured after 1 week of post-reperfusion by dihydroethidium staining based fluorescence microscopic analysis. Type of series: functional, organism-based. The note with it: time 1.0 weeks.

Series [8] relates to PC-12. As to the kind of experiment: Antioxidant activity in t-BHP -induced rat PC12 cells at 2.5 to 20 uM. It counts as functional, cell-based. The note with it: dose 2.5-20 µM.
In series [9] the test system is PC-12. As to the kind of experiment: Neuroprotective activity against t-BHP induced oxidative damage in rat PC12 cells model assessed as cell viability at 2.5 to 20 uM incubated for 24 hrs by CCK-8 assay. It counts as functional, cell-based. The note with it: dose 2.5-20 µM.

SMILES strings stand for the structures. The source made the active and inactive calls. The rule behind the calls is not given here.

On to `COc1ccc(-c2cc3c(/C=C/C(=O)c4cc(OC)c(OC)c(OC)c4)ccc(OC)c3o2)cc1`, for which the viability in series [1] was below 80%. Moreover, the viability at 40 µM in the series on PC-12 [2] was determined as 72.9%. Also, the viability at 10 µM in the series on PC-12 [3] was found to be 43.7%.
As to `CC(C)(C)OO` [TERT-BUTYL HYDROPEROXIDE], in the series on PC-12 [3], the viability at 10 µM is 52.1%.
Take `COC(=O)[C@@H](NC(=O)/C=C/c1ccc(OC)c2oc(-c3ccc(C)cc3)cc12)c1ccccc1`: in the series with PC-12 [2], the viability at 40 µM stood at 99.3%. Also, the viability at 10 µM with PC-12 [3] was determined as 74.1%.
For `COc1cccc(C(=O)/C=C/c2ccc(OC)c3oc(-c4ccc(C)cc4)cc23)c1` the same measures were 119% and 55.7%.
Take `COc1ccc(-c2cc3c(/C=C/C(=O)NCCc4ccc(O)c(O)c4)ccc(OC)c3o2)cc1OC`: the viability at 40 µM with PC-12 [2] was 104%. The viability at 10 µM with PC-12 [3] was found to be 70.7%.
The like results for `COC(=O)[C@H](Cc1c[nH]c2ccccc12)NC(=O)/C=C/c1ccc(OC)c2oc(-c3ccc(C)cc3)cc12` were, in that order, 117% and 66.1%.
As to `COc1ccc(C(=O)/C=C/c2ccc(OC)c3oc(-c4ccc(C)cc4)cc23)cc1OC`, the viability at 40 µM in the series with PC-12 [2] stood at 80.1%. In the series with PC-12 [3], the viability at 10 µM was 42.9%.
For `COC(=O)[C@H](Cc1c[nH]c2ccccc12)NC(=O)/C=C/c1ccc(OC)c2oc(-c3cc(OC)cc(OC)c3)cc12`, the viability at 40 µM with PC-12 [2] was 105%. In the series with PC-12 [3], the viability at 10 µM was determined as 79.4%.
The like results for `COc1ccc(/C=C/C(=O)NCCc2ccccc2)c2cc(-c3ccc(C)cc3)oc12` were, in that order, 99.1% and 93.8%.
For `COC(=O)[C@@H](NC(=O)/C=C/c1ccc(OC)c2oc(-c3ccc(C)cc3)cc12)c1ccc(O)cc1` the same measures were 92% and 69.7%.
For the compound `CC1=NN(c2ccccc2)C(=O)C1`, the outcome in the series on Rattus norvegicus [4], in the series with PC-12 [5], with PC-12 [6] and in the series on Rattus norvegicus [7] was Active.
For the compound `COC(=O)[C@@H](NC(=O)/C=C/c1ccc(OC)c2oc(-c3ccc(C)cc3)cc12)C(C)C`, the viability at 40 µM in the series on PC-12 [2] is 94.2%. In addition, in the series on PC-12 [3], the viability at 10 µM was determined as 73.1%.
Turning to `COc1ccc(/C=C/C(=O)c2ccc3c(c2)OCO3)c2cc(-c3ccc(C)cc3)oc12`, the viability at 40 µM in the series with PC-12 [2] came to 95%. Further, in the series on PC-12 [3], the viability at 10 µM was 58.1%.
For `COC(=O)[C@H](Cc1c[nH]c2ccccc12)NC(=O)/C=C/c1ccc(OC)c2oc(-c3ccc(OC)c(OC)c3)cc12` the same measures were 111% and 57.1%.
For the compound `COc1ccc(/C=C/C(=O)c2ccc(O)cc2)c2cc(-c3ccc(C)cc3)oc12`, in [1], the viability is below 80%. In addition, in the series on PC-12 [2], the viability at 40 µM was 84.1%. Besides, the viability at 10 µM with PC-12 [3] was found to be 55.9%.
On to `COc1cccc(C(=O)/C=C/c2ccc(OC)c3oc(-c4ccc(C)cc4)cc23)c1OC`, for which the viability at 40 µM with PC-12 [2] stood at 78.2%. The viability at 10 µM in the series on PC-12 [3] worked out at 67.5%.
As for `COc1ccc(/C=C/C(=O)c2cccc(O)c2)c2cc(-c3ccc(C)cc3)oc12`, in series [1], the viability is below 80%. In the series on PC-12 [2], the viability at 40 µM stood at 80.6%. Moreover, in the series with PC-12 [3], the viability at 10 µM was determined as 37.7%.
Consider `COC(=O)[C@H](Cc1c[nH]c2ccccc12)NC(=O)/C=C/c1ccc(OC)c2oc(-c3ccc(OC)cc3)cc12`, for which, in the series on PC-12 [2], the viability at 40 µM was determined as 96%. The viability at 10 µM in the series with PC-12 [3] turned out to be 94.4%.
Turning to `COc1cc(OC)cc(-c2cc3c(/C=C/C(=O)c4cc(OC)c(OC)c(OC)c4)ccc(OC)c3o2)c1`, the viability at 40 µM with PC-12 [2] stood at 109%. Further, the viability at 10 µM with PC-12 [3] worked out at 89.2%.
On to `COc1cc(OC)cc(-c2cc3c(/C=C/C(=O)NCCc4ccc(O)c(O)c4)ccc(OC)c3o2)c1`, for which the viability in series [1] was below 80%. In the series with PC-12 [2], the viability at 40 µM worked out at 98.7%. In the series with PC-12 [3], the viability at 10 µM was determined as 76.7%.
As for `COC(=O)[C@H](CC1CCCCC1)NC(=O)/C=C/c1ccc(OC)c2oc(-c3ccc(C)cc3)cc12`, the viability at 40 µM in the series on PC-12 [2] is 96.1%. Also, the viability at 10 µM in the series on PC-12 [3] came out at 82.1%.
The like results for `COc1cc(C(=O)/C=C/c2ccc(OC)c3oc(-c4ccc(C)cc4)cc23)ccc1F` were, in that order, 102% and 83.8%.
As to `COC(=O)[C@@H]1CCCN1C(=O)/C=C/c1ccc(OC)c2oc(-c3ccc(C)cc3)cc12`, the viability at 40 µM in the series on PC-12 [2] was determined as 75.5%. Besides, in the series on PC-12 [3], the viability at 10 µM amounted to 32.3%.
Regarding `COc1cc(OC)cc(-c2cc3c(/C=C/C(=O)c4ccc(O)c(OC)c4)ccc(OC)c3o2)c1`, the viability at 40 µM in the series on PC-12 [2] stood at 94.6%. Also, the viability at 10 µM in the series with PC-12 [3] worked out at 45.6%.
Turning to `COc1ccc(/C=C/C(=O)c2ccco2)c2cc(-c3ccc(C)cc3)oc12`, the viability in series [1] is below 80%. Besides, in the series on PC-12 [2], the viability at 40 µM turned out to be 107%. Also, the viability at 10 µM in the series on PC-12 [3] is 78.5%.
Take `COC(=O)CNC(=O)/C=C/c1ccc(OC)c2oc(-c3ccc(C)cc3)cc12`: in the series on PC-12 [2], the viability at 40 µM turned out to be 93.9%. In addition, the viability at 10 µM with PC-12 [3] came out at 68.9%.
For `COc1ccc(C(=O)/C=C/c2ccc(OC)c3oc(-c4ccc(C)cc4)cc23)cc1F` the same measures were 98.8% and 50.8%.
As to `COc1ccc(C(=O)/C=C/c2ccc(OC)c3oc(-c4ccc(C)cc4)cc23)cc1`, the viability at 40 µM in the series with PC-12 [2] is 99.5%. Moreover, the viability at 10 µM in the series with PC-12 [3] is 56.8%.
For `COc1cc(C(=O)/C=C/c2ccc(OC)c3oc(-c4ccc(OC)c(OC)c4)cc23)ccc1O`, the viability in series [1] was below 80%. Further, the viability at 40 µM in the series with PC-12 [2] was found to be 93.8%. In the series with PC-12 [3], the viability at 10 µM stood at 12.9%.
On to `COc1cc(C(=O)/C=C/c2ccc(OC)c3oc(-c4ccc(C)cc4)cc23)ccc1O`, for which the viability at 40 µM in the series with PC-12 [2] stood at 72.8%. Further, the viability at 10 µM in the series with PC-12 [3] is 36.3%.
For `CCCC[C@H](NC(=O)/C=C/c1ccc(OC)c2oc(-c3ccc(C)cc3)cc12)C(=O)OC`, in the series on PC-12 [2], the viability at 40 µM is 93.5%. Also, the viability at 10 µM in the series with PC-12 [3] turned out to be 56%.
For `COc1cc(C(=O)/C=C/c2ccc(OC)c3oc(-c4ccc(C)cc4)cc23)cc(OC)c1O` the same measures were 82% and 37.7%.
With `COc1ccc(/C=C/C(=O)NCCc2ccc(O)c(O)c2)c2cc(-c3ccc(C)cc3)oc12`, in the series with PC-12 [2], the viability at 40 µM came to 103%. Further, the outcome in the series with PC-12 [8] and in the series with PC-12 [9] was Active. For the same compound, in the series with PC-12 [3], the viability at 10 µM came out at 99.3%.
On to `COc1ccc(-c2cc3c(/C=C/C(=O)c4ccc(O)c(OC)c4)ccc(OC)c3o2)cc1`, for which the viability at 40 µM with PC-12 [2] is 116%. Further, the viability at 10 µM with PC-12 [3] was 77.2%.
As for `COc1cc(C(=O)/C=C/c2ccc(OC)c3oc(-c4ccc(C)cc4)cc23)cc(OC)c1OC`, the viability at 40 µM with PC-12 [2] is 102%. Moreover, the viability at 10 µM in the series on PC-12 [3] turned out to be 51.6%.
For `COc1cc(OC)cc(C(=O)/C=C/c2ccc(OC)c3oc(-c4ccc(C)cc4)cc23)c1` the same measures were 92.2% and 76.1%.
Turning to `CC[C@H](NC(=O)/C=C/c1ccc(OC)c2oc(-c3ccc(C)cc3)cc12)C(=O)OC`, in the series on PC-12 [2], the viability at 40 µM came out at 84%. Also, the viability at 10 µM with PC-12 [3] came to 66.4%.
For `COc1ccc(C(=O)/C=C/c2ccc(OC)c3oc(-c4ccc(C)cc4)cc23)c(OC)c1OC` the same measures were 83.9% and 71.9%.
As for `COc1ccc(-c2cc3c(/C=C/C(=O)NCCc4ccc(O)c(O)c4)ccc(OC)c3o2)cc1`, the viability at 40 µM in the series with PC-12 [2] is 98.2%. The outcome with PC-12 [8] and in the series on PC-12 [9] was Active. For the same compound, the viability at 10 µM with PC-12 [3] is 99.2%.
With `COc1ccc(/C=C/C(=O)c2ccc(N3CCOCC3)cc2)c2cc(-c3ccc(C)cc3)oc12`, the viability at 40 µM with PC-12 [2] worked out at 85%. Besides, in the series on PC-12 [3], the viability at 10 µM turned out to be 77.9%.
Regarding `COC(=O)[C@@H]1CCC(=O)N1C(=O)/C=C/c1ccc(OC)c2oc(-c3ccc(C)cc3)cc12`, the viability at 40 µM in the series with PC-12 [2] amounted to 95.3%. Moreover, in the series on PC-12 [3], the viability at 10 µM is 91%.
Regarding `COc1ccc(-c2cc3c(/C=C/C(=O)c4cc(OC)c(OC)c(OC)c4)ccc(OC)c3o2)cc1OC`, the viability at 40 µM in the series on PC-12 [2] amounted to 105%. The outcome in the series on PC-12 [8] and in the series with PC-12 [9] was Active. The viability at 10 µM with PC-12 [3] was found to be 95.5%.
With `COc1ccc(C(=O)/C=C/c2ccc(OC)c3oc(-c4ccc(C)cc4)cc23)cc1O`, in the series on PC-12 [2], the viability at 40 µM worked out at 69.2%. In addition, the viability at 10 µM in the series with PC-12 [3] was found to be 14.9%.

The values are drawn from ChEMBL document CHEMBL6177962, “Design, synthesis and biological evaluation of 2-arylbenzo[b]furan-4-vinylcarbonyl derivatives based on Salvianolic acid C as antioxidant neuroprotective agents for the treatment of ischemic stroke” (Eur J Med Chem, 2025).
